Measured values as given in patent publication US20240164998A1, “FRAGRANCE COMPOSITION” (TAKASAGO INTERNATIONAL CORPORATION, priority 2022, published 2024).
Where a name gives a salt, the structure may show the parent alone.

What was measured:
[1] = Sensory evaluation of fragrance compositions against model body odor; set-up: species or system people; conditions: each malodor (model body odor, model nursing care odor); substance in floral base fragrance composition
Method: TEC in the tables indicates triethyl citrate. […] Note that, a grouping method and the ratio within the groups are optional and are not limited by Table 9. Floral bases in Table 2 to Table 8 were prepared according to Table 10.
The malodor prevention ability of these fragrance compositions was confirmed by sensory evaluation. As for malodor, model body odor and model nursing care odor containing hexanal as one of key components were prepared according to Table 11 and Table 12. 10 μL of each model malodor and 1 μL of the fragrances 1 to 60 as test substances were dropped into a cotton ball, which was charged into a plastic bottle. The bottle was left standing at room temperature for 30 minutes to allow odor molecules to sufficiently volatilize inside the bottle. A sensory evaluation test was performed by a panel of 20 people, the discomfort when the malodor was dropped alone was rated as −3, and the discomfort when the test substance was mixed was evaluated from −4 (extremely discomfortable) to +4 (extremely comfortable). An average value was calculated from the obtained numerical values.

[2] = Sensory evaluation of malodor prevention ability of group A against hexanal odor; set-up: species or system people; conditions: scale 0 (no malodor felt) to 10 (very strong); hexanal alone rated 8; 10 μL hexanal diluted 100 times + 1 μL test substance, 1 hour room temperature; average of panel of 20
Method: The malodor prevention ability of a test substance was confirmed by sensory evaluation. As malodor, 10 μL of hexanal diluted 100 times with dipropylene glycol and 1 μL of the test substance were dropped into a cotton ball, which was charged into a plastic bottle. The bottle was left standing at room temperature for 1 hour to allow odor molecules to sufficiently volatilize inside the bottle. A sensory evaluation test was performed by a panel of 20 people, a malodor intensity when the malodor was dropped alone was rated as 8, and the odor intensity when the test substance was mixed was evaluated from 0 (no malodor was felt) to 10 (very strong malodor was felt). An average value was calculated from the obtained numerical values.

Structure (SMILES) | effect on reducing the discomfort due to malodor (in words) [1] | Hexanal odor intensity [2]
O=C1CCCC=CCCCCCCCCCC1 [Ambretone, 5-cyclohexadecenone] | reduced the discomfort due to each malodor | 3.5
CC1CCC(C(C)C)C(OCC(O)CO)C1 (stereo not shown) [COOLACT 10, 3-(menthoxy)propane-1,2-diol] |  | 3.3
C=C(C)C1CC=C(C)C(=O)C1 (stereo not shown) [Carvone, reference compound] |  | 7.1
CCCC(O)CCC1C(C)CCCC1(C)C (stereo not shown) [Dextramber, 1-(2,2,6-trimethylcyclohexyl)hexan-3-ol] | reduced the discomfort due to each malodor | 3.0
CCCCCC1C(=O)CCC1CC(=O)OC (stereo not shown) [Hedione, methyl (2-pentyl-3-oxo-cyclopentyl) acetate] | reduced the discomfort due to each malodor | 4.2
CC(=CCC1CC=C(C)C1(C)C)CO (stereo not shown) [Hindinol, 2-methyl-4-(2,2,3-trimethyl-3-cyclopentenyl)-2-buten-1-ol] | reduced the discomfort due to each malodor | 3.9
C=C(C)[C@@H]1CC[C@@H](C)C[C@H]1O [Isopulegol, isopulegol] | reduced the discomfort due to each malodor | 3.4
CC(C)[C@@H]1CC[C@@H](C)CC1=O [Menthone, reference compound] |  | 6.9
CC(=O)C1(C)CC2=C(CCCC2(C)C)CC1C (stereo not shown) [Orbitone, 2-acetyl-2,3,8,8-tetramethyloctarine] | reduced the discomfort due to each malodor | 3.9
CC(c1ccccc1)C1CC1C(C)(C)O (stereo not shown) [Pamplefix, 50% triethyl citrate solution, dimethyl-2-(1-phenylethyl)cyclopropylmethanol] | reduced the discomfort due to each malodor | 4.1
CC1=CCC(C(C)C)C=C1 (stereo not shown) [Phellandrene, p-mentha-1,5-diene] | reduced the discomfort due to each malodor | 4.1
CCOC(=O)C1C(C)CCCC1(C)C (stereo not shown) [Thesaron, ethyl 2,2,6-trimethylcyclohexane-1-carboxylate] | reduced the discomfort due to each malodor | 2.6
CCOC(=O)C(C)C(C)S (stereo not shown) [ethyl 3-mercapto-2-methylbutyrate] | reduced the discomfort due to each malodor | 3.1
CC(=O)C(C)=CC1C(C)=CCCC1(C)C (stereo not drawn) [α-isomethylionone, 3-methyl-4-(2,6,6-trimethyl-2-cyclohexen-1-yl)-3-buten-2-one] | reduced the discomfort due to each malodor | 3.1
